Test results published in patent US20210195892A1, “COMPOSITION AND METHOD FOR MICROBIAL CONTROL ON MATERIAL SURFACES” (Microban Products Company, priority 2019, published 2021).
Counter-ions that a name gives are not always drawn.

What was measured:
Aspergillus niger (An) = test: ASTM E2180 protocol, fungus; assay type: cell-based
[1] = Thermogravimetric analysis (TGA) at 10° C./min; assay type: physicochemical; details: for temperature at which volatization started: TGA 10° C./min, FIG. 2
bacteria = test: Antibacterial efficacy of treated PP plaques (ISO 22196); assay type: cell-based; details: for bacterial efficacy per the ISO 22196 test: salts alone in PP, any active concentration up to 1%
Description: In addition to processing at 200° C., samples were run with PP at 250° C. to simulate the use of these GRAS acids in polymers that process at higher temperatures than polypropylene. Samples were also run using extended residence times in the injection molding machine (from the normal 30 second residence time to 120 seconds residence time) to simulate a process with a longer cycle time that would hold the polymer material at temperature for an extended period of time—the extended cycle were run at both 200° C. and 240° C.

| Structure (SMILES) | temperature at which volatization started [1] | bacterial efficacy per the ISO 22196 test (bacteria) | further results |
| --- | --- | --- | --- |
| O=C(O)c1ccccc1 [GBA, benzoic acid] | approximately 100 °C |  | reduction in fungal growth (Aspergillus niger (An); incorporated into EVA): over 90%; reductions in fungal growth (Aspergillus niger (An); incorporated into PE): over 99% |
| O=C(O)CC(O)(CC(=O)O)C(=O)O [GCA, citric acid] | 200 °C |  | antibacterial efficacy (bacteria; PP test plaques at 0.5% and 1% active level): good at the higher level but fell off at the lower level |
| C/C=C/C=C/C(=O)[O-].[K+] [GKS, potassium sorbate] |  | no significant bacterial efficacy |  |
| O=C([O-])c1ccccc1.[Na+] [GNB, sodium benzoate] |  | no significant bacterial efficacy |  |
| O=C(O)CC(O)(CC(=O)O)C(=O)O [GNC, sodium citrate] |  | no significant bacterial efficacy | weight loss in TGA ([1]; TGA 10° C./min up to 275° C., attributed to water content): approximately 10% |
| C/C=C/C=C/C(=O)O [GSA, sorbic acid] | approximately 100 °C |  | efficacy as low as (level in PP) (bacteria; further experiments, PP): 1000 ppm |
